Tested on: 171881-019-R-J1-PDC multicell spheroid viability
Assay: Anticancer human tumor 171881-019-R-J1-PDC patient-derived invasive breast carcinoma cell line growth inhibition [IpAb]
Conditions: for IC50: curve of first compound; for viability, T/C: stronger effect = lower value
Text: Combinatorial screen of targeted agents with ipatasertib and abemaciclib in multi-cell type tumor spheroids
A high-throughput screen of multi-cell type tumor spheroids was designed to identify active combinations of targeted small molecules and ipatasertib or abemaciclib. Complex spheroids include a stromal component modeled by human endothelial cells (HUVEC) and fibroblasts modeled by human mesenchymal stem cells (MSCs). The concentration ranges selected for each drug and investigational agent were based upon clinically achievable concentrations if the clinical Cmax of the agent was known.
Compounds. The drugs and investigational agents: ipatasertib (NSC767898), abemaciclib(NSC768073), selumetinib (NSC741078), trametinib (758246), adavosertib (NSC754352), everolimus (NSC733504), sapanisertib (NSC764658), vemurafenib (NSC761431), venetoclax (NSC766270), copanlisib (NSC809693), apelisib (NSC765974), palbociblib (NSC758247), vemurafenib (NSC761431), dabrafenib (NSC764134), ravoxertinib (NSC781343), BMS-387032 (NSC767048), sotorasib (NSC818433), talazoparib (NSC767125) and afursertib (NSC778305), were obtained from the National Cancer Institute (NCI) Developmental Therapeutics Program Chemical Repository. The FDA-approved anticancer drug set is available from the NCI Developmental Therapeutics Program. […] The stock solutions were prepared in dimethyl sulfoxide (DMSO, Sigma-Aldrich, St. Louis, MO, cat. D2650) at 800-fold the tested concentration and stored at -70 degrees C prior to their use. All drugs and investigational agents were tested over a range starting from a high concentration at or near the clinical Cmax and decreasing in half-log increments. If the clinical Cmax for an agent had not been determined, the highest concentration tested was 10 microM.
NCI60 Cell Culture. NCI60 cell lines were obtained from the NCI Developmental Therapeutics Program Tumor Repository. For each lot of cells, the Repository performed Applied Biosystems AmpFLSTR Identifiler testing with PCR amplification to confirm consistency with the published Identifier STR profile for each cell line. Cells were kept in continuous culture for no more than 20 passages. The optimal seeding densities for each of the cell lines at each time point assessed were determined prior to performing the concentration response studies. Briefly, the NCI60 human tumor lines were grown as monolayers in RPMI 1640 medium supplemented with 10% FBS and 2 mmol/L L-glutamine.
An additional 9 lines were from the NCI60 cell line panel including MDA-MB-231 breast carcinoma, MDA-MB-468 breast carcinoma, MCF7 breast carcinoma, Hs578T breast carcinoma, MALME-3M melanoma, SK-MEL-2 melanoma, SK-OV-3 ovarian carcinoma, DU-145 prostate carcinoma, PC-3 prostate carcinoma, all cell lines along with major genetic alterations are listed on Table 2. Pooled donor human umbilical vein endothelial cells (HUVEC, Lonza, cat. CC-2519) and human mesenchymal stem cells (hMSC, Lonza, cat. PT-2501) were purchased from Lonza (Walkersville, MD).
PDMR cell lines were grown in complete medium (DC medium): Dulbecco's modified Eagle's medium (DMEM)/F12 supplemented with 5% fetal bovine serum (FBS), 2 mM L-glutamine, 100 U/mL penicillin and 100 µg/ml streptomycin, 0.4 µg/ml hydrocortisone, 10 ng/ml epidermal growth factor (EGF) recombinant human protein, 24 µg/mL adenine, and 0.1 mg/mL primocin. During culture from frozen stock vials, PDMR cells were cultured in the same medium containing 10 µM Y-27632 (see Table 3). The PDCs were cultured in complete DMEM/F12 media without 10 microM Y-27632 dihydrochloride for at least two passages prior to the screen. The pooled donor HUVEC and hMSC were cultured in endothelial cell growth medium 2 (PromoCell, Heidelberg, Germany, cat. C-22011) and mesenchymal stem cell growth medium 2 (PromoCell, cat. C-28009), respectively. For all experiments, HUVEC and hMSC were used at passages </=5.
[…]

[1] = second compound 0.1 µM, first compound 0.0316 µM
[2] = second compound 0.1 µM, first compound 0.1 µM
[3] = second compound 0.1 µM, first compound 0.316 µM
[4] = second compound 0.1 µM, first compound 1 µM
[5] = second compound 0.316 µM, first compound 0.0316 µM
[6] = second compound 0.316 µM, first compound 0.1 µM
[7] = second compound 0.316 µM, first compound 0.316 µM
[8] = second compound 0.316 µM, first compound 1 µM
[9] = second compound 1 µM, first compound 0.0316 µM
[10] = second compound 1 µM, first compound 0.1 µM
[11] = second compound 1 µM, first compound 0.316 µM
[12] = second compound 1 µM, first compound 1 µM
[13] = second compound 3.16 µM, first compound 0.0316 µM
[14] = second compound 3.16 µM, first compound 0.1 µM
[15] = second compound 3.16 µM, first compound 0.316 µM
[16] = second compound 3.16 µM, first compound 1 µM
[17] = second compound 10 µM, first compound 0.0316 µM
[18] = second compound 10 µM, first compound 0.1 µM
[19] = second compound 10 µM, first compound 0.316 µM
[20] = second compound 10 µM, first compound 1 µM
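Further: spheroids exposed to the agents for seven days before readout.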

SMILES: COc1c(OCCCN2CCOCC2)ccc2c3n(c(=NC(=O)c4cnc(N)nc4)nc12)CCN3 + CC(C)NCC(C(=O)N1CCN(c2ncnc3c2C(C)CC3O)CC1)c1ccc(Cl)cc1
- IC50 (second compound 0.1 µM): 16.4 nM
- IC50 (second compound 0.316 µM): 5.9 nM
- IC50 (second compound 1 µM): < 3.16 nM
- IC50 (second compound 3.16 µM): < 3.16 nM
- IC50 (second compound 10 µM): < 3.16 nM
- viability, T/C (second compound 0.1 µM, first compound 0.00316 µM): 94.5%
- viability, T/C (second compound 0.1 µM, first compound 0.01 µM): 68.5%
- viability, T/C [1]: 25.8%
- viability, T/C [2]: 3.96%
- viability, T/C [3]: 1.09%
- viability, T/C [4]: 1.15%
- viability, T/C (second compound 0.316 µM, first compound 0.00316 µM): 61.5%
- viability, T/C (second compound 0.316 µM, first compound 0.01 µM): 40%
- viability, T/C [5]: 16.9%
- viability, T/C [6]: 3.36%
- viability, T/C [7]: 0.91%
- viability, T/C [8]: 0.95%
- viability, T/C (second compound 1 µM, first compound 0.00316 µM): 25.2%
- viability, T/C (second compound 1 µM, first compound 0.01 µM): 15.6%
- viability, T/C [9]: 8.13%
- viability, T/C [10]: 2.24%
- viability, T/C [11]: 0.79%
- viability, T/C [12]: 1.24%
- viability, T/C (second compound 3.16 µM, first compound 0.00316 µM): 9.51%
- viability, T/C (second compound 3.16 µM, first compound 0.01 µM): 6.39%
- viability, T/C [13]: 3.83%
- viability, T/C [14]: 1.68%
- viability, T/C [15]: 0.83%
- viability, T/C [16]: 0.67%
- viability, T/C (second compound 10 µM, first compound 0.00316 µM): 5.07%
- viability, T/C (second compound 10 µM, first compound 0.01 µM): 3.81%
- viability, T/C [17]: 2.45%
- viability, T/C [18]: 1.59%
- viability, T/C [19]: 0.62%
- viability, T/C [20]: 0.82%

SMILES: Cc1nc(NC(=O)N2CCCC2C(N)=O)sc1-c1ccnc(C(C)(C)C(F)(F)F)c1 (stereo not given) + CC(C)NCC(C(=O)N1CCN(c2ncnc3c2C(C)CC3O)CC1)c1ccc(Cl)cc1
- IC50 (second compound 0.1 µM): 651 nM
- IC50 (second compound 0.316 µM): 294 nM
- IC50 (second compound 1 µM): < 31.6 nM
- IC50 (second compound 3.16 µM): < 31.6 nM
- IC50 (second compound 10 µM): < 31.6 nM
- viability, T/C [1]: 125%
- viability, T/C [2]: 108%
- viability, T/C [3]: 68.4%
- viability, T/C [4]: 38.1%
- viability, T/C (second compound 0.1 µM, first compound 3.16 µM): 15.5%
- viability, T/C (second compound 0.1 µM, first compound 10 µM): 1.41%
- viability, T/C [5]: 71.5%
- viability, T/C [6]: 58.9%
- viability, T/C [7]: 52.8%
- viability, T/C [8]: 18.8%
- viability, T/C (second compound 0.316 µM, first compound 3.16 µM): 10.7%
- viability, T/C (second compound 0.316 µM, first compound 10 µM): 1.29%
- viability, T/C [9]: 24.8%
- viability, T/C [10]: 24.1%
- viability, T/C [11]: 21.3%
- viability, T/C [12]: 13.5%
- viability, T/C (second compound 1 µM, first compound 3.16 µM): 4.39%
- viability, T/C (second compound 1 µM, first compound 10 µM): 0.88%
- viability, T/C [13]: 10.7%
- viability, T/C [14]: 7.22%
- viability, T/C [15]: 7.33%
- viability, T/C [16]: 5.54%
- viability, T/C (second compound 3.16 µM, first compound 3.16 µM): 3.24%
- viability, T/C (second compound 3.16 µM, first compound 10 µM): 0.74%
- viability, T/C [17]: 5.48%
- viability, T/C [18]: 4.17%
- viability, T/C [19]: 4.3%
- viability, T/C [20]: 2.72%
- viability, T/C (second compound 10 µM, first compound 3.16 µM): 1.77%
- viability, T/C (second compound 10 µM, first compound 10 µM): 0.6%

— PubChem BioAssay AID2060342 (Molecular Pharmacology Branch, DTP, NCI, 2025)
